A short description of the data set: PK parameters after a single dose of three 50 mg tablets to a sample population (12). It counts as in vivo. The conditions noted are these: human, po, 150 mg, plasma, three 50 mg tablets of Example 4 in a single dose. The protocol: A 50 mg tablet as specified in Example 4 was prepared using the procedure described in Example 4. Three tablets were administered in a single dose to a sample population (12) and the PK parameters measured. These parameters are provided below.
Primary PK variables were […] and analyzed using a mixed effects linear model. Sequence, Period and Treatment factors were included in the model as fixed effects and subject as a random effect. 90% confidence intervals for PK variables (pharmacokinetic analysis population).
Drug Substance: Compound (iii); Matrix: Plasma; Analyte: Compound (iii).

For `CC(C)c1cc2[nH]c(=O)n(NS(C)(=O)=O)c(=O)c2cc1-c1ccnn1C` [Compound (iii)], for the setting “read-out: AUCinf, adjusted geometric mean”, the AUC(0-inf) worked out at 16800 ng·h/mL. Moreover, for the setting “read-out: AUClast, adjusted geometric mean”, the AUC(0-t) is 16800 ng·h/mL. The Cmax (read-out: Cmax, adjusted geometric mean) came to 2910 ng/mL.

The values are drawn from patent US20120263791A1, “FOMULATION COMPRISING 1 H-QUINAZOLINE-2, 4-DIONE AMPA RECEPTOR ANTAGONISTS, IN THE FORM OF IMMEDIATE RELEASE TABLETS AND PREPARATION THEREOF” (NOVARTIS AG, priority 2009, published 2012).
